This note sets out measurements from US10017527B2, “KLK4 inhibitors” (Universiteit Antwerpen, priority 2014, dated 2018).

What all share (type): biochemical
Test [1] has as its target T1, KLK4 (Homo sapiens, UniProt Q9Y5K2).
T1 construct: purchased Viktor Magdolen (TUM), supplied by an academic laboratory
Put plainly: KLK4 enzymatic inhibition, fluorogenic substrate Boc-Val-Pro-Arg-AMC. The method, then: The substrate was obtained form Bachem and the enzyme was provided by Viktor Magdolen (TUM). The reaction was monitored with an excitation wavelength of 355 nm and emission wavelength of 460 nm. The initial rate was determined between 2500000 and 4500000 mRFU/min. The reaction mixture contained 25 μM substrate and approximately 1 mU of enzyme in 145 μL of buffer in a final volume of […]. A 50 mM Tris buffer, pH 8.3, was used. From each inhibitor concentration, 5 μL was added, obtaining a final concentration from 0 to 250 μM in a total volume of 0.2 mL. Activity measurements were routinely performed in duplicate. […] IC50 values were obtained by fitting the data with the four-parameter logistics equation using Grafit 7.
[formula] where s=slope factor, v=rate, I0=inhibitor concentration, and range=the fitted uninhibited value minus the background. The equation assumes they falls with increasing x.
(§1) Inhibitor stock solutions were prepared in DMSO and stored at −20° C. Because the compounds described in this paper completely inactivate KLK4 following pseudo first-order kinetics, the IC50 value is inversely correlated with the second-order rate constant of inactivation. For a simple pseudo first-order inactivation process, the activity after incubation with inhibitor (vi) varies with the inhibitor concentration (i), as described in the following equation: vi=v0×e^−k t, where vo is the activity in absence of inhibitor, k is the second-order rate constant of inactivation, and t is the time. The inactivation rate constant was determined from the time course of inhibition.

In test [2] the target is T2, FXa (Homo sapiens, UniProt P00742).
T2 construct: purchased Nodia
T2 sequence (P00742 235-488 limits assumed): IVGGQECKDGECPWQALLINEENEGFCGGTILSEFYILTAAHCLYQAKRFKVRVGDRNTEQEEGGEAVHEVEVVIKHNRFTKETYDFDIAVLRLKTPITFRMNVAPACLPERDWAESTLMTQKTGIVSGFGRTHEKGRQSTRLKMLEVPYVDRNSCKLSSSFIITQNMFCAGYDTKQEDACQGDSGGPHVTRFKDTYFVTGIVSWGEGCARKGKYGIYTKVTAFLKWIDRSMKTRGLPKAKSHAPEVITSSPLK
T2 sequence (P00742 41-179 partner limits assumed): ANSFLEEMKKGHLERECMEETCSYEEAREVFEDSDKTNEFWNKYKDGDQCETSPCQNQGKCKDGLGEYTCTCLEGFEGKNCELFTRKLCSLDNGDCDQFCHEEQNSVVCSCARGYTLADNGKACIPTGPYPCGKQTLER
Put plainly: FXa inhibition, chromogenic substrate Biophen CS-11(32). The source says: (§2) The IC50 values For KLK1, KLK2 and KLK8 were obtained in a similar way. For plasmin, tPA, thrombin, Fxa, HNE, Plasma kallikrein Chromogenic substrates were used (absorption: 405 nm). (KLK2, KLK4, KLK8 were supplied by Viktor Magdolen TUMunich (TUM)).

For test [3], the target named is AcHE (Homo sapiens, UniProt P22303). Put plainly: AcHE inhibition.
Sequence of AcHE (P22303 32-614): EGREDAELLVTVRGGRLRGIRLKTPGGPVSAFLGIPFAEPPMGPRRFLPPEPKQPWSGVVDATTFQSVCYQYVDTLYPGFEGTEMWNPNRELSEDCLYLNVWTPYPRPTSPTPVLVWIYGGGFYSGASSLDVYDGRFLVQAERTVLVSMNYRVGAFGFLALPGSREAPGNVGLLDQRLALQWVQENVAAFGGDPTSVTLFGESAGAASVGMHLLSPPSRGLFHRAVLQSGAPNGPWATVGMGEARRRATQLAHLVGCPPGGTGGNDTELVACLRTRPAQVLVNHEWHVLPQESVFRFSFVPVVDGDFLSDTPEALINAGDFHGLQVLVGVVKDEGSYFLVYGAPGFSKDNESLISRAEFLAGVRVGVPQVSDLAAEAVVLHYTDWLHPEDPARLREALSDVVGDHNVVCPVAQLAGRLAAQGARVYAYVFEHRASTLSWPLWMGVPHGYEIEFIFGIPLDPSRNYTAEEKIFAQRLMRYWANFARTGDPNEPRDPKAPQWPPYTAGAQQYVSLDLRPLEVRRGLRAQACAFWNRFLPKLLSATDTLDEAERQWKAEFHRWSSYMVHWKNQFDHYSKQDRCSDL
In test [4] the target is T3, Neurtophil Elastase(human) (Homo sapiens, UniProt P08246).
T3 construct: purchased Enzo-life sciences
T3 sequence (P08246 30-267): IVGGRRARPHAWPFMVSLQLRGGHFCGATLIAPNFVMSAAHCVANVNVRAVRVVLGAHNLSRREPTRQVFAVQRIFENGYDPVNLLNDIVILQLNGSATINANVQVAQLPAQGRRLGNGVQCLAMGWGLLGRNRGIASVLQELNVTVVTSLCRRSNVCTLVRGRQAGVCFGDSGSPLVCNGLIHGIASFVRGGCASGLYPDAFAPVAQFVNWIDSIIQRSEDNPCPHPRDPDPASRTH
The test can be described thus: Neutrophil elastase inhibition, chromogenic substrate MeOSuc-Ala-Ala-Pro-Val-pNA.
From the text: as §2

In test [5] the target is T4, PlasmaKLK (human plasma) (Homo sapiens, UniProt P03952).
T4 construct: purchased Sigma-Aldrich; host or cells: human plasma
T4 sequence (P03952 391-638 limits assumed): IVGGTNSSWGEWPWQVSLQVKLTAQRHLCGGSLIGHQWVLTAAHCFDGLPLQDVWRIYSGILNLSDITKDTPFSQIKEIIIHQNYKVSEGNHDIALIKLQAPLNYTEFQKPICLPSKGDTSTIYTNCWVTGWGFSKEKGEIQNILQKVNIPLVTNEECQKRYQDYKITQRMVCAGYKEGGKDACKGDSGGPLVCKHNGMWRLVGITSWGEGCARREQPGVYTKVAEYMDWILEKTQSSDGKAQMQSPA
T4 sequence (P03952 20-390 partner limits assumed): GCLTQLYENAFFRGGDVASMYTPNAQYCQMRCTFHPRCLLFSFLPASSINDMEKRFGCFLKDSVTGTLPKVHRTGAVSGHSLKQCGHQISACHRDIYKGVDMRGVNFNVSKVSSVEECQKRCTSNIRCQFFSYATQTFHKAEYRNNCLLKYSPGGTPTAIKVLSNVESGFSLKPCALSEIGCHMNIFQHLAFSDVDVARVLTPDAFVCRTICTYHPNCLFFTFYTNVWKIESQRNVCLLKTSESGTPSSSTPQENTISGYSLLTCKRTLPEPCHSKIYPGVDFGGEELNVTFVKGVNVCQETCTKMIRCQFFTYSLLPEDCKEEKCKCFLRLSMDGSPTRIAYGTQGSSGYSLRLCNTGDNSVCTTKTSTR
Put plainly: Plasma kallikrein inhibition, chromogenic substrate Biophen CS-31(02).
From the text: as §2

Test [6] addresses T5, KLK8 (human) (Homo sapiens, UniProt O60259).
T5 construct: purchased Viktor Magdolen, TUMunich (TUM), supplied by an academic laboratory
T5 sequence (O60259 33-260): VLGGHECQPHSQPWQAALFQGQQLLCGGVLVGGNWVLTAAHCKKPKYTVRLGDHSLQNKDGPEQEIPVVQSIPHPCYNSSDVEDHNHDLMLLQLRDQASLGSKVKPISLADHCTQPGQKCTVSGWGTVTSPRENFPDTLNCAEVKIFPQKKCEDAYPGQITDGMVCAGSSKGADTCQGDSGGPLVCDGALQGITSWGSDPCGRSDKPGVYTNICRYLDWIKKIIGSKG
Put plainly: KLK8 inhibition, fluorogenic substrate Boc-Val-Pro-Arg-AMC.
From the text: as §2

The target in test [7] is T1, KLK4. The test can be described thus: KLK4 inactivation kinetics from progress curves (kobs vs inhibitor concentration). Conditions: for Irreversible (KLK4): irreversible binding to KLK4, Yes/No. The method, then:
as §1
The inhibitor was mixed with the substrate (250 μM final concentration), and the buffer solution with the enzyme was added at the time zero. […] The progress curves show the absorbance of aminomethylcoumarine produced as a function of time. Initially, no inhibitor is bound to the enzyme, and the tangent to the progress curve (dA/dt) is proportional to the concentration of the free enzyme. The concentration of free enzyme decreases over time due to the kinetics of inhibitor binding, as described above. Progress curves were recorded in pseudo first-order conditions ([I]0>>[E]0) and with less than 10% conversion of the substrate during the entire time course. In these conditions, dA/dt decreases exponentially with time. The progress curves were fitted with the integrated rate equation to yield a value for kobs, a pseudofirst-order rate constant At=v0[1−e^−k^obs^t]/kobs+A0 where At=absorbance at time t, A0=absorbance at time zero, and v0=uninhibited initial rate.
The apparent second-order rate constant (kapp) was calculated from the slope of the linear part of the plot of kobs versus the inhibitor concentration ([I]0). In case of competition between the inhibitor and the substrate, kapp is smaller than the “real” second order rate constant k discussed above because a certain fraction of the enzyme is present as an enzyme-substrate complex. kapp depends on the substrate concentration used in the experiment, as described by Lambeir et al. (Lambeir, Borloo et al. 1996).

The target in test [8] is T6, Thrombine (human plasma) (Homo sapiens, UniProt P00734).
T6 construct: purchased Sigma-Aldrich; host or cells: human plasma
Put plainly: Thrombin inhibition, chromogenic substrate Biophen CS-21(66).

Test [9] has as its target T7, Plasmine (human plasma) (Homo sapiens, UniProt P00747).
T7 construct: purchased Sigma-Aldrich; host or cells: human plasma
The test can be described thus: Plasmin inhibition, chromogenic substrate Biophen CS-21(66).
From the text: as §2

Test [10] addresses T8, Matriptase (Homo sapiens, UniProt Q9Y5Y6).
T8 sequence (Q9Y5Y6 1-855): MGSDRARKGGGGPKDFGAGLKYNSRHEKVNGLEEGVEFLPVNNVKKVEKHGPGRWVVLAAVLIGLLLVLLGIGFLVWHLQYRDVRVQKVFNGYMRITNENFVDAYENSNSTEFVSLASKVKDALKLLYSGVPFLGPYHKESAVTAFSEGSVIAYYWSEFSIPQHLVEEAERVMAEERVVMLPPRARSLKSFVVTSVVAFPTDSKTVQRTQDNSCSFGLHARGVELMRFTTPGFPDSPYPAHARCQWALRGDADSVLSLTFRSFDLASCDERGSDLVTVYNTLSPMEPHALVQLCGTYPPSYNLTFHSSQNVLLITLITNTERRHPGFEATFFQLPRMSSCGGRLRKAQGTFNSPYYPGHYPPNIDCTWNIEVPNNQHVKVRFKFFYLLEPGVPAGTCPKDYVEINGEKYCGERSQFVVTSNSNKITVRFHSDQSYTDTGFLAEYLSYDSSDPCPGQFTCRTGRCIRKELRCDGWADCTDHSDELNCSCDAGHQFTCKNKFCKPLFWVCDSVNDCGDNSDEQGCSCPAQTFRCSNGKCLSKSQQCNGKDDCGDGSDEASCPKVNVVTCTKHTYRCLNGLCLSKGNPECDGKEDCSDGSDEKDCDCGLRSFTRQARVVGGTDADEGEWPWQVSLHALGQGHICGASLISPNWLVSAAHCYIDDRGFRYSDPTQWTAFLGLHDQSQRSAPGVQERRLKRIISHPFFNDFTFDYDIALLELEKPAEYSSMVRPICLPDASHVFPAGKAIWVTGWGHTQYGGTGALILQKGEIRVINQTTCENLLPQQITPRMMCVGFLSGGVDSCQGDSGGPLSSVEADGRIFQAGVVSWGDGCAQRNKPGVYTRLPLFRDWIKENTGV
The test can be described thus: Matriptase inhibition.

Test [11] has as its target T9, KLK2 (human) (Homo sapiens, UniProt P20151).
T9 construct: purchased Viktor Magdolen, TUMunich (TUM), supplied by an academic laboratory
Put plainly: KLK2 inhibition, fluorogenic substrate H-Pro-Phe-Arg-AMC.
From the text: as §2

Test [12] addresses T10, tPA (recombinant) (Homo sapiens, UniProt P00750).
T10 construct: purchased Nodia
The test can be described thus: tPA inhibition, chromogenic substrate Biophen CS-05(88).
From the text: as §2

Test [13] addresses T11, uPA (recombinant) (Homo sapiens, UniProt P00749).
T11 construct: purchased Nodia
Put plainly: uPA inhibition, chromogenic substrate Biophen CS-61(44).

In test [14] the target is T12, KLK1 (human) (Homo sapiens, UniProt P06870).
T12 construct: purchased Prospec
T12 sequence (P06870 25-262): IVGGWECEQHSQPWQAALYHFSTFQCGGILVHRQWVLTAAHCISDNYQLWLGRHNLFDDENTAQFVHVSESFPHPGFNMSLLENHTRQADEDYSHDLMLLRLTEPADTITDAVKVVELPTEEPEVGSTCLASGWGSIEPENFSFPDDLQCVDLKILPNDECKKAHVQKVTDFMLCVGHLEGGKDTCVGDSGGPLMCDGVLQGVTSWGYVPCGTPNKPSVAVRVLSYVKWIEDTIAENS
Put plainly: KLK1 inhibition, fluorogenic substrate H-Pro-Phe-Arg-AMC.
From the text: as §2

T9 sequence (P20151 25-261): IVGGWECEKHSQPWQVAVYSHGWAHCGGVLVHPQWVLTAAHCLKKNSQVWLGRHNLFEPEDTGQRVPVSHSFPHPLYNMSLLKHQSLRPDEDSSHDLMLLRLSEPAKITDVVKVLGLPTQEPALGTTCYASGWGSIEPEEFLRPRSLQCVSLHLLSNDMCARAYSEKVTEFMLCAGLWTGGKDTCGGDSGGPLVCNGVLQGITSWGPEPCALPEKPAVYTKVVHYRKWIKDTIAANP
T7 sequence (P00747 581-810 limits assumed): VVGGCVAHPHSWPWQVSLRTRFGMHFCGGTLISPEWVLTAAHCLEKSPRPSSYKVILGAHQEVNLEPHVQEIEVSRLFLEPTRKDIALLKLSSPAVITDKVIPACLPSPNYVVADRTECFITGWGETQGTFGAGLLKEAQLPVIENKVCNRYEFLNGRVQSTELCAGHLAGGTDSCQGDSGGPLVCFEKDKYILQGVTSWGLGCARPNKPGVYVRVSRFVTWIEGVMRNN
T7 sequence (P00747 98-580 partner limits assumed): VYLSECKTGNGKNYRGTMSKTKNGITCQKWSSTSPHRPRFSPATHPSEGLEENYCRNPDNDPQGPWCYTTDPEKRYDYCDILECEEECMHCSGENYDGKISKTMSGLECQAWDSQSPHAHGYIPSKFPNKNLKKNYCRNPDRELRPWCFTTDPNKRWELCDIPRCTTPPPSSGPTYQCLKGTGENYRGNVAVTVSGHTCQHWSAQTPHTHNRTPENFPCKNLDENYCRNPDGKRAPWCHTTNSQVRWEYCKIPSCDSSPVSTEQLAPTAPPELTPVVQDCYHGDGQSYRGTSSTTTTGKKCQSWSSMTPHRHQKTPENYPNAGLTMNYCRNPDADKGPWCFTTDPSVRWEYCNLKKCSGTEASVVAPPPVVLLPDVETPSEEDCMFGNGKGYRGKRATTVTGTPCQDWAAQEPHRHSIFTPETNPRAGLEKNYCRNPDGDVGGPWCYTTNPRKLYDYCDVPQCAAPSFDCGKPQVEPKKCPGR
T1 sequence (Q9Y5K2 31-254): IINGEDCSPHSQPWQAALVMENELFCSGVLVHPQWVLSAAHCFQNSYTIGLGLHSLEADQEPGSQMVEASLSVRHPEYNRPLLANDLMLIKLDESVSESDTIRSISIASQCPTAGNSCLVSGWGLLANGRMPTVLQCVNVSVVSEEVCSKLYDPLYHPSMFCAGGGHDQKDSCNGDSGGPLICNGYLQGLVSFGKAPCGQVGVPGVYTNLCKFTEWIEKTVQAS
T10 sequence (P00750 36-562, species assumed): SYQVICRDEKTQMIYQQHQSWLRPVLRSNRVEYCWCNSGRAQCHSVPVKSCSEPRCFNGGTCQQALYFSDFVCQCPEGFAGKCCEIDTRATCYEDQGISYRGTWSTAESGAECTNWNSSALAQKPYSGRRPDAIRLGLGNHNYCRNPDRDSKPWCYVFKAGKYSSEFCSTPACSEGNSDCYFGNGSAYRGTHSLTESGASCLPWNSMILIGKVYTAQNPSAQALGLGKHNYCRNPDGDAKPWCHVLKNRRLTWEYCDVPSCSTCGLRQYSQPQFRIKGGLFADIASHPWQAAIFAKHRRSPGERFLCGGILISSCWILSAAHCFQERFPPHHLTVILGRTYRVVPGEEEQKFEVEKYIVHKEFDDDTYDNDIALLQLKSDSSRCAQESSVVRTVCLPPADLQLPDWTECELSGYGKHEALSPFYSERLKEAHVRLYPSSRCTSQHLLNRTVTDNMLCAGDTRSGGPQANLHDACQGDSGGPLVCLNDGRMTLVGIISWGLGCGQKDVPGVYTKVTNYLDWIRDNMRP

As for `N=C(N)Nc1ccc(C(NC(=O)OCc2ccccc2)P(=O)(Oc2ccccc2)Oc2ccccc2)cc1` (stereo not drawn) [Compound 5a, benzyl (diphenoxyphosphoryl)(4-guanidinophenyl)methylcarbamate 2,2,2-trifluoroacetate, reference compound], the IC50 was < 0.1 µM in test [1]; 2.5 to 10 µM in test [2]; 10 to 250 µM in [3]; 10 to 250 µM in test [4]; 2.5 to 10 µM in test [5]; 1 to 2.5 µM in [6]. The IC50 is > 250 µM in test [8]; 2.5 to 10 µM in [9]; 2.5 to 10 µM in [10]; < 0.1 µM in test [11]; > 250 µM in test [12]; 2.5 to 10 µM in test [13]. The IC50 in test [14] lay in the range of 0.1 to 1 µM. Also, in test [7], the “binding mechanism against KLK4” value is “reversible”.
As to `C#CCOCCOCCOC(=O)NC(c1ccc(NC(=N)N)cc1)P(=O)(Oc1ccccc1)Oc1ccccc1.O=C(O)C(F)(F)F` (stereo not drawn) [Compound 27, 2-(2-(prop-2-yn-1-yloxy)ethoxy)ethyl ((diphenoxyphosphoryl)(4-guanidinophenyl)methyl)carbamate 2,2,2-trifluoroacetate], the IC50 in [1] was < 0.1 µM; in test [2], 10 to 250 µM; in [3], 10 to 250 µM; in [4] it was 2.5 to 10 µM; in [5], 10 to 250 µM; in test [6], 10 to 250 µM. Also, the IC50 in test [8] is > 250 µM; in [10] it was 2.5 to 10 µM; in test [11], 1 to 2.5 µM; in test [12], > 250 µM; in test [13], 2.5 to 10 µM; in [14] it was 2.5 to 10 µM. In test [7] (apparent second-order rate constant, substrate 250 μM), the “kapp KLK4” value is 16000 M⁻¹ s⁻¹. Further, in test [7], the “Irreversible (KLK4)” value is given as “Yes/”.
Take `COCCOC(=O)NC(c1ccc(NC(=N)N)cc1)P(=O)(Oc1ccccc1)Oc1ccccc1` (stereo not drawn) [Compound 29, 2-methoxyethyl ((diphenoxyphosphoryl)(4-guanidinophenyl)methyl)carbamate 2,2,2-trifluoroacetate]: the IC50 in test [1] was 0.1 to 1 µM; in [2], > 250 µM; in [3] it was 10 to 250 µM; in test [4] it was 2.5 to 10 µM; in [5] it was > 250 µM; in [6], 10 to 250 µM. In addition, the IC50 in [8] is > 250 µM; in test [9] it was 10 to 250 µM; in test [10] it was 2.5 to 10 µM; in [11], 0.1 to 1 µM; in test [12] it was > 250 µM; in [13] it was 10 to 250 µM. This compound gave a half-maximal inhibitory concentration (IC50) in test [14] of 10 to 250 µM.
Take `CCCCCCOC(=O)NC(c1ccc(NC(=N)N)cc1)P(=O)(Oc1ccccc1)Oc1ccccc1` (stereo not drawn) [Compound 92, Hexyl ((diphenoxyphosphoryl)(4-guanidinophenyl)methyl)carbamate]: the 50% inhibitory concentration (IC50) in test [1] was < 0.1 µM; in [2], 2.5 to 10 µM; in test [3] it was 10 to 250 µM; in test [4], 2.5 to 10 µM; in [5], 2.5 to 10 µM; in [6], 2.5 to 10 µM. Also, the IC50 in test [9] was 2.5 to 10 µM; in test [11] it was 0.1 to 1 µM; in test [12], 2.5 to 10 µM; in [13] it was 2.5 to 10 µM; in [14], 1 to 2.5 µM.
Consider `N=C(N)Nc1ccc(CC(NC(=O)OCc2ccccc2)P(=O)(Oc2ccccc2)Oc2ccccc2)cc1` (stereo not drawn) [UPA1, reference compound], for which the IC50 in test [1] is < 0.1 µM; in test [2], 10 to 250 µM; in test [3], 10 to 250 µM; in test [4] it was 10 to 250 µM; in [5], 2.5 to 10 µM; in test [6], < 0.1 µM. For the same compound, the IC50 in test [8] was 1 to 2.5 µM; in test [9] it was 2.5 to 10 µM; in test [10], 0.1 to 1 µM; in [11], < 0.1 µM; in [12] it was 10 to 250 µM; in test [14], 2.5 to 10 µM. Moreover, the “binding mechanism against KLK4” value in test [7] was “reversible”. For the same compound, the “Irreversible (KLK4)” value in test [7] is recorded as “No”.
